# In PubChem BioAssay (NCI):
#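 A five-concentration, 48-hour dose response in 96-well plates underlies each endpoint, interpolated linearly between surrounding concentrations. TGI marks complete inhibition of growth.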
# System: OVCAR-3 ovarian
# Experiment: growth of human tumour cells (NCI), 48 h
row,Compound,TGI [µM]
1,Cc1oc2c(c1C)S(=O)(=O)C(C#N)C(c1ccccc1)N2 (configuration not stated),> 100
2,CC(=O)Oc1cc2c(n(C)c1=O)-c1ccccc1C2,> 100
3,COc1ccc2cc(Oc3ccc(Cl)cc3)c(=O)oc2c1,> 100
4,O=c1[nH]n(Cc2ccccc2Cl)c2ccc([N+](=O)[O-])cc12,> 100
5,CC1=NN(C(=O)CC(=O)Nc2ccc(C)cc2)C(=O)C1N=Nc1ccc(C(=O)O)cc1 (configuration not stated),> 100
6,CCOC(=O)CCC(NC(=O)c1ccc(CNc2nc3ccccc3nc2C(=O)OCC)cc1)C(=O)OCC (configuration not stated),> 100
7,COC(=O)Nc1nc2ccc(S(=O)(=O)NC(CC(C)C)C(=O)OC)cc2[nH]1 (configuration not stated),2.7
8,OC(CCN1CCCCC1)(c1ccccc1)c1ccccc1,> 100
9,COC1CC(C)C(OC)C2=CC(=O)C=C(NC(=O)/C(C)=C/C=C\C(C)C(OC(N)=O)/C(C)=C\C(C)C1OC)C2=O (configuration not stated),1.48
10,O=C(Nc1cccc2ccccc12)Nn1cnnc1,> 100
11,CN(C)C=Nc1cccc2nsnc12,> 100
12,COc1cc(S(=O)(=O)Nc2nc(-c3ccc(N4C(=O)CSC4c4cccs4)cc3)cs2)ccc1Cl (configuration not stated),> 100
13,COc1cc(S(=O)(=O)Nc2nc(-c3ccc(N4C(=O)C(CC(=O)O)SC4c4ccccc4O)cc3)cs2)ccc1Cl (configuration not stated),> 100
14,N#C/C(=C\c1cn(Cc2ccccc2)c2ccccc12)c1nn(-c2ccccc2)c(N)c1C#N,33.7
15,Ic1ncnc2c1ncn2C1CCCO1 (configuration not stated),> 100
16,COc1ccc(Nc2nnc(CCCCCCCCc3nnc(Nc4ccc(OC)cc4)o3)o2)cc1,> 100
17,COc1cc(OCc2ccc3nc(-c4ccccc4)c(Cl)nc3c2)cc(OC)c1OC,> 100
18,CC1(C)C2CCC3=C(CCC4(C)C5C[C@](C)(C(=O)O)CC[C@]5(C)CC[C@]34C)[C@@]2(C)CC[C@@H]1O (some centres not stated),29.8
19,CC[C@](O)(CC(=O)O[C@H]1C(=O)O[C@@H]2C[C@H]3C(C)=CC(=O)[C@@H](O)[C@]3(C)[C@H]3[C@@]4(O)OC[C@]32[C@@H]1[C@@H](C)[C@H]4O)C(C)C,< 0.01
20,CC(C)(C)O/C=C1/C(=O)OC2C[C@@H](O[Si](C)(C)C(C)(C)C)CC12 (some centres not stated),> 100
21,O=C1CC(CC(O)[C@@H]2CCCC[C@@H]2O)CC(=O)N1c1ccccc1 (some centres not stated),> 100
22,O=C1CC(=O)NC(=NN2C(=O)/C(=C/C(=O)c3ccco3)N=C2c2ccccc2)N1,> 100
23,OC1(CCc2ccccc2)COC(C(F)(F)F)(C(F)(F)F)C1 (configuration not stated),> 100
24,CCC(C)C(C(=O)N/N=C1/SCC(=O)N1c1ccccc1)C(=O)N/N=C1/SCC(=O)N1c1ccccc1 (configuration not stated),> 100
25,Cc1c(C)c2c(c(N)c1C#N)C(=O)N(CCc1ccccc1)C2=O,> 100

# System: COLO 205 colon
# Experiment: growth of human tumour cells (NCI), 48 h
row,Compound,TGI [µM]
1,Cc1oc2c(c1C)S(=O)(=O)C(C#N)C(c1ccccc1)N2 (configuration not stated),> 100
2,CC(=O)Oc1cc2c(n(C)c1=O)-c1ccccc1C2,> 100
3,O=c1[nH]n(Cc2ccccc2Cl)c2ccc([N+](=O)[O-])cc12,> 100
4,CC1=NN(C(=O)CC(=O)Nc2ccc(C)cc2)C(=O)C1N=Nc1ccc(C(=O)O)cc1 (configuration not stated),> 100
5,CCOC(=O)CCC(NC(=O)c1ccc(CNc2nc3ccccc3nc2C(=O)OCC)cc1)C(=O)OCC (configuration not stated),> 100
6,COC(=O)Nc1nc2ccc(S(=O)(=O)NC(CC(C)C)C(=O)OC)cc2[nH]1 (configuration not stated),59.3
7,OC(CCN1CCCCC1)(c1ccccc1)c1ccccc1,> 100
8,COC1CC(C)C(OC)C2=CC(=O)C=C(NC(=O)/C(C)=C/C=C\C(C)C(OC(N)=O)/C(C)=C\C(C)C1OC)C2=O (configuration not stated),3.19
9,O=C(Nc1cccc2ccccc12)Nn1cnnc1,> 100
10,CN(C)C=Nc1cccc2nsnc12,> 100
11,COc1cc(S(=O)(=O)Nc2nc(-c3ccc(N4C(=O)CSC4c4cccs4)cc3)cs2)ccc1Cl (configuration not stated),> 100
12,COc1cc(S(=O)(=O)Nc2nc(-c3ccc(N4C(=O)C(CC(=O)O)SC4c4ccccc4O)cc3)cs2)ccc1Cl (configuration not stated),> 100
13,COC(=O)C(C)NP(=O)(N1CC1)N1CC1 (configuration not stated),> 100
14,N#C/C(=C\c1cn(Cc2ccccc2)c2ccccc12)c1nn(-c2ccccc2)c(N)c1C#N,56.2
15,Ic1ncnc2c1ncn2C1CCCO1 (configuration not stated),> 100
16,COc1ccc(Nc2nnc(CCCCCCCCc3nnc(Nc4ccc(OC)cc4)o3)o2)cc1,> 100
17,COc1cc(OCc2ccc3nc(-c4ccccc4)c(Cl)nc3c2)cc(OC)c1OC,> 100
18,CC1(C)C2CCC3=C(CCC4(C)C5C[C@](C)(C(=O)O)CC[C@]5(C)CC[C@]34C)[C@@]2(C)CC[C@@H]1O (some centres not stated),> 100
19,O=[n+]1c2ccccc2n([O-])c2ccccc21,> 100
20,CC[C@](O)(CC(=O)O[C@H]1C(=O)O[C@@H]2C[C@H]3C(C)=CC(=O)[C@@H](O)[C@]3(C)[C@H]3[C@@]4(O)OC[C@]32[C@@H]1[C@@H](C)[C@H]4O)C(C)C,< 0.01
21,CC(C)(C)O/C=C1/C(=O)OC2C[C@@H](O[Si](C)(C)C(C)(C)C)CC12 (some centres not stated),> 100
22,O=C1CC(=O)NC(=NN2C(=O)/C(=C/C(=O)c3ccco3)N=C2c2ccccc2)N1,> 100
23,OC1(CCc2ccccc2)COC(C(F)(F)F)(C(F)(F)F)C1 (configuration not stated),> 100
24,CCC(C)C(C(=O)N/N=C1/SCC(=O)N1c1ccccc1)C(=O)N/N=C1/SCC(=O)N1c1ccccc1 (configuration not stated),> 100
25,Cc1c(C)c2c(c(N)c1C#N)C(=O)N(CCc1ccccc1)C2=O,> 100

# System: SK-MEL-2 melanoma
# Experiment: growth of human tumour cells (NCI), 48 h
row,Compound,TGI [µM]
1,Cc1oc2c(c1C)S(=O)(=O)C(C#N)C(c1ccccc1)N2 (configuration not stated),> 100
2,CC(=O)Oc1cc2c(n(C)c1=O)-c1ccccc1C2,> 100
3,O=c1[nH]n(Cc2ccccc2Cl)c2ccc([N+](=O)[O-])cc12,> 100
4,CC1=NN(C(=O)CC(=O)Nc2ccc(C)cc2)C(=O)C1N=Nc1ccc(C(=O)O)cc1 (configuration not stated),> 100
5,CCOC(=O)CCC(NC(=O)c1ccc(CNc2nc3ccccc3nc2C(=O)OCC)cc1)C(=O)OCC (configuration not stated),> 100
6,COC(=O)Nc1nc2ccc(S(=O)(=O)NC(CC(C)C)C(=O)OC)cc2[nH]1 (configuration not stated),> 100
7,OC(CCN1CCCCC1)(c1ccccc1)c1ccccc1,> 100
8,COC1CC(C)C(OC)C2=CC(=O)C=C(NC(=O)/C(C)=C/C=C\C(C)C(OC(N)=O)/C(C)=C\C(C)C1OC)C2=O (configuration not stated),21.5
9,O=C(Nc1cccc2ccccc12)Nn1cnnc1,> 100
10,CN(C)C=Nc1cccc2nsnc12,> 100
11,COc1cc(S(=O)(=O)Nc2nc(-c3ccc(N4C(=O)CSC4c4cccs4)cc3)cs2)ccc1Cl (configuration not stated),> 100
12,COc1cc(S(=O)(=O)Nc2nc(-c3ccc(N4C(=O)C(CC(=O)O)SC4c4ccccc4O)cc3)cs2)ccc1Cl (configuration not stated),> 100
13,COC(=O)C(C)NP(=O)(N1CC1)N1CC1 (configuration not stated),> 100
14,N#C/C(=C\c1cn(Cc2ccccc2)c2ccccc12)c1nn(-c2ccccc2)c(N)c1C#N,16.9
15,Ic1ncnc2c1ncn2C1CCCO1 (configuration not stated),> 100
16,COc1ccc(Nc2nnc(CCCCCCCCc3nnc(Nc4ccc(OC)cc4)o3)o2)cc1,> 100
17,COc1cc(OCc2ccc3nc(-c4ccccc4)c(Cl)nc3c2)cc(OC)c1OC,> 100
18,O=[n+]1c2ccccc2n([O-])c2ccccc21,> 100
19,CC[C@](O)(CC(=O)O[C@H]1C(=O)O[C@@H]2C[C@H]3C(C)=CC(=O)[C@@H](O)[C@]3(C)[C@H]3[C@@]4(O)OC[C@]32[C@@H]1[C@@H](C)[C@H]4O)C(C)C,< 0.01
20,CC(C)(C)O/C=C1/C(=O)OC2C[C@@H](O[Si](C)(C)C(C)(C)C)CC12 (some centres not stated),> 100
21,O=C1CC(=O)NC(=NN2C(=O)/C(=C/C(=O)c3ccco3)N=C2c2ccccc2)N1,> 100
22,OC1(CCc2ccccc2)COC(C(F)(F)F)(C(F)(F)F)C1 (configuration not stated),> 100
23,CCC(C)C(C(=O)N/N=C1/SCC(=O)N1c1ccccc1)C(=O)N/N=C1/SCC(=O)N1c1ccccc1 (configuration not stated),83.1
24,Cc1c(C)c2c(c(N)c1C#N)C(=O)N(CCc1ccccc1)C2=O,> 100

# System: NCI/ADR-RES ovarian
# Experiment: growth of human tumour cells (NCI), 48 h
row,Compound,TGI [µM]
1,Cc1oc2c(c1C)S(=O)(=O)C(C#N)C(c1ccccc1)N2 (configuration not stated),> 100
2,CC(=O)Oc1cc2c(n(C)c1=O)-c1ccccc1C2,58.3
3,O=c1[nH]n(Cc2ccccc2Cl)c2ccc([N+](=O)[O-])cc12,> 100
4,CC1=NN(C(=O)CC(=O)Nc2ccc(C)cc2)C(=O)C1N=Nc1ccc(C(=O)O)cc1 (configuration not stated),> 100
5,CCOC(=O)CCC(NC(=O)c1ccc(CNc2nc3ccccc3nc2C(=O)OCC)cc1)C(=O)OCC (configuration not stated),> 100
6,COC(=O)Nc1nc2ccc(S(=O)(=O)NC(CC(C)C)C(=O)OC)cc2[nH]1 (configuration not stated),59.6
7,OC(CCN1CCCCC1)(c1ccccc1)c1ccccc1,> 100
8,CN(C)C=Nc1cccc2nsnc12,> 100
9,COc1cc(S(=O)(=O)Nc2nc(-c3ccc(N4C(=O)CSC4c4cccs4)cc3)cs2)ccc1Cl (configuration not stated),> 100
10,COc1cc(S(=O)(=O)Nc2nc(-c3ccc(N4C(=O)C(CC(=O)O)SC4c4ccccc4O)cc3)cs2)ccc1Cl (configuration not stated),> 100
11,N#C/C(=C\c1cn(Cc2ccccc2)c2ccccc12)c1nn(-c2ccccc2)c(N)c1C#N,49
12,COc1ccc(Nc2nnc(CCCCCCCCc3nnc(Nc4ccc(OC)cc4)o3)o2)cc1,> 100
13,COc1cc(OCc2ccc3nc(-c4ccccc4)c(Cl)nc3c2)cc(OC)c1OC,> 100
14,CC1(C)C2CCC3=C(CCC4(C)C5C[C@](C)(C(=O)O)CC[C@]5(C)CC[C@]34C)[C@@]2(C)CC[C@@H]1O (some centres not stated),36
15,O=[n+]1c2ccccc2n([O-])c2ccccc21,> 100
16,CC[C@](O)(CC(=O)O[C@H]1C(=O)O[C@@H]2C[C@H]3C(C)=CC(=O)[C@@H](O)[C@]3(C)[C@H]3[C@@]4(O)OC[C@]32[C@@H]1[C@@H](C)[C@H]4O)C(C)C,0.242
17,CC(C)(C)O/C=C1/C(=O)OC2C[C@@H](O[Si](C)(C)C(C)(C)C)CC12 (some centres not stated),> 100
18,O=C1CC(CC(O)[C@@H]2CCCC[C@@H]2O)CC(=O)N1c1ccccc1 (some centres not stated),> 100
19,O=C1CC(=O)NC(=NN2C(=O)/C(=C/C(=O)c3ccco3)N=C2c2ccccc2)N1,> 100
20,OC1(CCc2ccccc2)COC(C(F)(F)F)(C(F)(F)F)C1 (configuration not stated),> 100
21,CCC(C)C(C(=O)N/N=C1/SCC(=O)N1c1ccccc1)C(=O)N/N=C1/SCC(=O)N1c1ccccc1 (configuration not stated),> 100
22,Cc1c(C)c2c(c(N)c1C#N)C(=O)N(CCc1ccccc1)C2=O,> 100

# System: HCC-2998 colon
# Experiment: growth of human tumour cells (NCI), 48 h
row,Compound,TGI [µM]
1,Cc1oc2c(c1C)S(=O)(=O)C(C#N)C(c1ccccc1)N2 (configuration not stated),> 100
2,CC(=O)Oc1cc2c(n(C)c1=O)-c1ccccc1C2,> 100
3,O=c1[nH]n(Cc2ccccc2Cl)c2ccc([N+](=O)[O-])cc12,> 100
4,CC1=NN(C(=O)CC(=O)Nc2ccc(C)cc2)C(=O)C1N=Nc1ccc(C(=O)O)cc1 (configuration not stated),> 100
5,COC1CC(C)C(OC)C2=CC(=O)C=C(NC(=O)/C(C)=C/C=C\C(C)C(OC(N)=O)/C(C)=C\C(C)C1OC)C2=O (configuration not stated),2.11
6,O=C(Nc1cccc2ccccc12)Nn1cnnc1,> 100
7,COc1cc(S(=O)(=O)Nc2nc(-c3ccc(N4C(=O)C(CC(=O)O)SC4c4ccccc4O)cc3)cs2)ccc1Cl (configuration not stated),> 100
8,COC(=O)C(C)NP(=O)(N1CC1)N1CC1 (configuration not stated),> 100
9,Ic1ncnc2c1ncn2C1CCCO1 (configuration not stated),> 100
10,COc1ccc(Nc2nnc(CCCCCCCCc3nnc(Nc4ccc(OC)cc4)o3)o2)cc1,> 100
11,COc1cc(OCc2ccc3nc(-c4ccccc4)c(Cl)nc3c2)cc(OC)c1OC,> 100
12,CC1(C)C2CCC3=C(CCC4(C)C5C[C@](C)(C(=O)O)CC[C@]5(C)CC[C@]34C)[C@@]2(C)CC[C@@H]1O (some centres not stated),> 100
13,CC[C@](O)(CC(=O)O[C@H]1C(=O)O[C@@H]2C[C@H]3C(C)=CC(=O)[C@@H](O)[C@]3(C)[C@H]3[C@@]4(O)OC[C@]32[C@@H]1[C@@H](C)[C@H]4O)C(C)C,< 0.01
14,CC(C)(C)O/C=C1/C(=O)OC2C[C@@H](O[Si](C)(C)C(C)(C)C)CC12 (some centres not stated),> 100
15,O=C1CC(CC(O)[C@@H]2CCCC[C@@H]2O)CC(=O)N1c1ccccc1 (some centres not stated),> 100
16,O=C1CC(=O)NC(=NN2C(=O)/C(=C/C(=O)c3ccco3)N=C2c2ccccc2)N1,> 100
